Measurements as given in BigSolDB 2.1.

NC(=O)c1ccccc1
solubility (mole fraction)
Conditions	283.15 K	288.15 K	293.15 K	298.15 K	303.15 K	308.15 K	313.15 K	318.15 K	323.15 K
in acetone	0.0508	0.0589	0.0703	0.0817	0.0948	0.107	0.126	0.149	0.174
in acetonitrile	0.0162	0.0196	0.0231	0.0278	0.0331	0.0385	0.046	0.0564	0.0712
in ethanol	0.0412	0.0479	0.0555	0.0648	0.0758	0.087	0.101	0.12	0.143
in ethyl acetate	0.0206	0.0234	0.0279	0.0334	0.0392	0.0455	0.0518	0.0613	0.0719
in isobutanol	0.0268	0.0289	0.0342	0.0416	0.0489	0.0569	0.0665	0.0786	0.0945
in isopropanol	0.0253	0.0314	0.0387	0.0473	0.0558	0.0642	0.0767	0.0893	0.111
in methanol	0.0599	0.0699	0.0804	0.0917	0.105	0.121	0.141	0.164	0.189
in methyl acetate	0.0236	0.0277	0.0334	0.0401	0.0476	0.0567	0.0662	0.0769	0.0927
in n-butanol	0.0308	0.036	0.0425	0.0509	0.0591	0.0682	0.0787	0.0933	0.109
in n-butyl acetate	0.0176	0.0192	0.0224	0.0264	0.0304	0.0349	0.0402	0.0451	0.0525
in n-propanol	0.0329	0.0398	0.0479	0.0561	0.0653	0.0753	0.0891	0.103	0.126
in water	0.00099	0.00128	0.0017	0.00212	0.00261	0.00306	0.00363	0.00438	0.00538
